Residue numbers refer to the chain shown, from its start. Read-outs that look alike come from different tables or passages of the source. A value given as a limit tells only on which side of the number the result lay.

Here are results for seven molecules from patent publication US20200095296A1, “USE OF PEPTIDES AS BIOMARKERS IN THE DIAGNOSIS, CONFIRMATION AND TREATMENT OF A NEUROLOGICAL DISORDER AND TCR AND/OR HLA IMMUNOPROFILING IN NEURODEGENERATIVE DISEASE” (THE TRUSTEES OF COLUMBIA UNIVERSITY IN THE CITY OF NEW YORK, priority 2017, published 2020).

The target in assay [1] is T1, DPB1*04:01 (Homo sapiens, UniProt P04440).
T1 sequence (P04440 30-258): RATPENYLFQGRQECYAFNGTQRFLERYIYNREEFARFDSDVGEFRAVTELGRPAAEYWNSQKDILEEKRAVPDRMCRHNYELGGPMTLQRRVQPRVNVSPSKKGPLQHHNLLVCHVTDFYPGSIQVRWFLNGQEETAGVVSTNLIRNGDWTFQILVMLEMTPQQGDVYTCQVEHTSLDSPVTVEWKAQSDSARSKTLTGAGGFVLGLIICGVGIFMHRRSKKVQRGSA
T1 sequence (P20036 29-260 partner): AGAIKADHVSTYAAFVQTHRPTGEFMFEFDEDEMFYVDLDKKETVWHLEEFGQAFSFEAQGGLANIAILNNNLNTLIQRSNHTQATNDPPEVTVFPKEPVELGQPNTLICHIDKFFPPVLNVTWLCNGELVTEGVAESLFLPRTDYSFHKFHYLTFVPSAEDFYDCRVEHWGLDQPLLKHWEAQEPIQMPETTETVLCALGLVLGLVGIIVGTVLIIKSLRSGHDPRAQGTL
The assay is described as follows: competition binding assay, purified HLA DPB1*04:01.

Assay [2] concerns the target T2, DPB1*05:01 (Homo sapiens, UniProt P04440+P20036, A65V/A84E/F191V/F64L/G113D/G114E/K142R/L158P/M116V/M62Q/P115A/Q81R/R125K/T114A/T199I/T259P/V234M).
T2 sequence (P20036 29-260 M62Q/Q81R/T114A/K142R/L158P/F191V/T259P): T1 sequence (P20036 29-260 partner) with M34Q, Q53R, T86A, K114R, L130P, F163V, T231P
T2 sequence (P04440 30-258 F64L/A65V/A84E/G113D/G114E/P115A/M116V/R125K/T199I/V234M): T1 sequence (P04440 30-258) with F35L, A36V, A55E, G84D, G85E, P86A, M87V, R96K, T170I, V205M
Kind of assay: competition binding assay, purified HLA DPB1*05:01.

For assay [3], the target named is T3, DPB1*02:01 (Homo sapiens, UniProt P04440+P20036, A65V/A84D/A85E/K98E).
T3 sequence (P20036 29-260): T1 sequence (P20036 29-260 partner)
T3 sequence (P04440 30-258 A65V/A84D/A85E/K98E): T1 sequence (P04440 30-258) with A36V, A55D, A56E, K69E
The assay is described as follows: competition binding assay, purified HLA DPB1*02:01.

Assay [4] addresses T4, DPB1*03:01 (Homo sapiens, UniProt P04440+P20036, A65V/A84D/A85E/E86D/F38Y/G113D/G114E/G40L/I94L/L37V/M105V/M116V/P115A/R125K/T199I).
T4 sequence (P20036 29-260): T1 sequence (P20036 29-260 partner)
T4 sequence (P04440 30-258 L37V/F38Y/G40L/A65V/A84D/A85E/E86D/I94L/M105V/G113D/G114E/P115A/M116V/R125K/T199I): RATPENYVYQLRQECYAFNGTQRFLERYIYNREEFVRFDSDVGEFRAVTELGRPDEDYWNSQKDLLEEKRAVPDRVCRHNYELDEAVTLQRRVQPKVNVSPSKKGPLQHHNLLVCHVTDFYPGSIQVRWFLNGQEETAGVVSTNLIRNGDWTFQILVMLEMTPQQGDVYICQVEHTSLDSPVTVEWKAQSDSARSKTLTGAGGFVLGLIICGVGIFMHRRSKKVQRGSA
Kind of assay: competition binding assay, purified HLA DPB1*03:01. The settings on record: purified HLA, radiolabeled peptide competition; nM; read-out: binding to DPB1*03:01 (IC50).

The target in assay [5] is T5, DPB1*04:02 (Homo sapiens, UniProt P04440+P20036, A65V/A84D/A85E/L207M).
T5 sequence (P04440 30-258 A65V/A84D/A85E/L207M): T1 sequence (P04440 30-258) with A36V, A55D, A56E, L178M
T5 sequence (P20036 29-260): T1 sequence (P20036 29-260 partner)
Kind of assay: competition binding assay, purified HLA DPB1*04:02.

In assay [6] the target is DRB4*01:01 (Homo sapiens, UniProt P01903+P13762, G164S). The assay is described as follows: competition binding assay, purified HLA DRB4*01:01. The settings on record: purified HLA, radiolabeled peptide competition; nM; read-out: binding to DRB4*01:01 (IC50).
Assay [7] addresses DRB5*01:01 (Homo sapiens, UniProt P01903+Q30154). Kind of assay: competition binding assay, purified HLA DRB5*01:01. The conditions noted are these: purified HLA, radiolabeled peptide competition; nM; read-out: binding to DRB5*01:01 (IC50).
The test system of assay [8] is PBMC. The assay is described as follows: IFNg/IL-5 dual ELISPOT after 14 day in vitro stimulation of PBMC with Tau peptides. The assay is classed as cell-based, human. The settings on record: for % of total response / Average SFC per responder / Frequency of response / Total SFC per epitope: across all cohorts. An excerpt:
It was investigated whether T cell responses against Tau were detectable in the PD and healthy control (HC) donors. To this end, a panel of overlapping peptides spanning through the entire sequence of the Tau protein was synthesized. Since it is known that the Tau protein is post-translationally modified (mainly by phosphorylation), in several instances phosphorylated peptides were also synthesized. In all, 55 non-modified 16-mers overlapping by 8 and 14 modified 16-mers were synthesized.
PD: n=16, peptides tested 14-16 times; HC above 50 years old denominated as age-matched: n=11 (9-11 times) and HC below 35 years old (HC Young): n=13 (10-13 times).
These peptides were tested utilizing the following assay strategy. Briefly, PBMC from each donor were stimulated in vitro for 14 days as described (Hinz, D., 2015) with pools of 10 to 16 peptides each. After 14 days, the T cell cultures were assayed with IFNg/IL-5 dual ELISPOT assays […]. Positive pools were deconvoluted at day 17 to identify the specific individual epitopes recognized.

The mark [9] stands for this setting: purified HLA, radiolabeled peptide competition, nM, read-out: binding to DPB1*04:01 (IC50).
The mark [10] stands for this setting: purified HLA, radiolabeled peptide competition, nM, read-out: binding to DPB1*05:01 (IC50).
Setting [11] is: purified HLA, radiolabeled peptide competition, nM, read-out: binding to DPB1*02:01 (IC50).
Where [12] appears, read: purified HLA, radiolabeled peptide competition, nM, read-out: binding to DPB1*04:02 (IC50).
[13] abbreviates: all three cohorts (PD, HC > 50, HC < 35).
[14] abbreviates: healthy controls < 35 years old.
[15] abbreviates: healthy controls > 50 years old.

`CSCC[C@H](NC(=O)[C@H](CCC(=O)O)NC(=O)[C@H](Cc1ccc(O)cc1)NC(=O)[C@H](C)NC(=O)[C@H](CCC(=O)O)NC(=O)[C@H](CC(N)=O)NC(=O)[C@H](CC(=O)O)NC(=O)[C@@H]1CCCN1C(=O)[C@H](CC(=O)O)NC(=O)[C@@H](NC(=O)[C@@H]1CCCN1C(=O)[C@@H](N)CCSC)C(C)C)C(=O)N1CCC[C@H]1C(=O)N[C@@H](CO)C(=O)N[C@@H](CCC(=O)O)C(=O)O`: the IC50 in assay [1] (setting [9]), in assay [2] (setting [10]), in assay [3] (setting [11]), in assay [4] and in assay [5] (setting [12]) was more than 10000 nM each time.

`CSCC[C@H](NC(=O)[C@H](CCC(=O)O)NC(=O)[C@H](Cc1ccc(O)cc1)NC(=O)[C@H](C)NC(=O)[C@H](CCC(=O)O)NC(=O)[C@H](CC(N)=O)NC(=O)[C@H](CC(=O)O)NC(=O)[C@@H]1CCCN1C(=O)[C@H](CC(=O)O)NC(=O)[C@@H](NC(=O)[C@@H]1CCCN1C(=O)[C@@H](N)CCSC)C(C)C)C(=O)N1CCC[C@H]1C(=O)N[C@@H](COP(=O)(O)O)C(=O)N[C@@H](CCC(=O)O)C(=O)O`: the IC50 in assay [6], in assay [1] (setting [9]), in assay [7], in assay [2] (setting [10]), in assay [3] (setting [11]) and in assay [4] was more than 10000 nM throughout. Further, the IC50 in assay [5] (setting [12]) is more than 10000 nM.

With `CC(C)C[C@H](NC(=O)[C@@H](NC(=O)CNC(=O)[C@H](CCC(=O)O)NC(=O)[C@H](CCCCN)NC(=O)[C@@H](NC(=O)[C@@H](N)CCCCN)[C@@H](C)O)C(C)C)C(=O)N[C@@H](Cc1ccc(OP(=O)(O)O)cc1)C(=O)N[C@H](C(=O)NCC(=O)N[C@@H](CO)C(=O)N[C@@H](CCCCN)C(=O)N[C@H](C(=O)N[C@@H](CCCCN)C(=O)N[C@@H](CCC(=O)O)C(=O)O)[C@@H](C)O)C(C)C`, the IC50 in assay [1] worked out at 937 nM; in assay [2], 777 nM; in assay [3], 620 nM; in assay [5] it was 1600 nM.

Turning to `CSCC[C@H](NC(=O)[C@@H](N)CCC(=O)O)C(=O)N1CCC[C@H]1C(=O)N[C@@H](CO)C(=O)N[C@@H](CCC(=O)O)C(=O)N[C@@H](CCC(=O)O)C(=O)NCC(=O)N[C@@H](Cc1ccc(O)cc1)C(=O)N[C@@H](CCC(N)=O)C(=O)N[C@@H](CC(=O)O)C(=O)N[C@@H](Cc1ccc(O)cc1)C(=O)N[C@@H](CCC(=O)O)C(=O)N1CCC[C@H]1C(=O)N[C@@H](CCC(=O)O)C(=O)N[C@@H](C)C(=O)O`, the IC50 in assay [1] (setting [9]), in assay [2] (setting [10]), in assay [3] (setting [11]), in assay [4] and in assay [5] (setting [12]) was more than 10000 nM in each case.

As for “LATLADEVSASLAKQG (listed as Homo sapiens) [Tau 16-mer, start 425]”, in assay [8], the “PD/HC > 50 Ratio of % Responders” value was 0.3, the “PD/HC > 50 Ratio of Response” value came to 0.5, the “HC > 50 % of Total Responders” value was 75.0% and the “% of total response” value is 1.1%. Also, in assay [8], the “Average SFC per responder” value is given as 948 SFC, the Frequency of response worked out at 7.5 and the “Total SFC per epitope” value stood at 3793 SFC. In addition, the “HC > 50 Total SFC” value in assay [8] (HC > 50, dominant epitopes) was 2530 SFC. Also, the “PD % of Total Responders” value in assay [8] (PD donors) was 25.0%. For the same molecule, in assay [8] (PD donors, dominant epitopes), the “PD Total SFC” value is recorded as 1263 SFC.

On to KVAVVRXPPKSPSSAK, for which, in assay [8], the “PD/HC > 50 Ratio of % Responders” value was determined as 4.0, the “PD/HC > 50 Ratio of Response” value turned out to be 3.2, the “HC > 50 % of Total Responders” value was 13.0% and the “% of total response” value came to 13.2%. Further, in assay [8], the “Average SFC per responder” value worked out at 12014 SFC, the Frequency of response worked out at 43.4 and the “Total SFC per epitope” value is 46324 SFC. In addition, the “HC > 50 Total SFC” value in assay [8] (HC > 50, dominant epitopes) came to 6987 SFC. Besides, in assay [8] (PD donors), the “PD % of Total Responders” value worked out at 52.2%, the “PD Total Responders” value worked out at 12 and the “PD Total SFC” value came to 22410 SFC. Besides, the “PD Total SFC” value in assay [8] (PD donors, dominant epitopes) was found to be 22410 SFC. In assay [8] (setting [13]), the “Total Responders” value is reported as 23 and the “Total SFC” value was 46324 SFC. Also, in assay [8] (setting [14]), the “HC < 35 Total Responders” value amounted to 8 and the “HC < 35 Total SFC” value stood at 16927 SFC. Moreover, in assay [8] (setting [15]), the “HC > 50 Total Responders” value is recorded as 3 and the “HC > 50 Total SFC” value is 6987 SFC.

“TRIPAKTPPAPKTPPS (listed as Homo sapiens) [Tau 16-mer, start 169]”: in assay [8], the “PD/HC > 50 Ratio of % Responders” value is on record as 1.0, the “PD/HC > 50 Ratio of Response” value worked out at 8.1, the “HC > 50 % of Total Responders” value was determined as 33.3% and the “% of total response” value is recorded as 1.1%. For the same molecule, in assay [8], the “Average SFC per responder” value is reported as 1299 SFC, the Frequency of response came out at 5.7 and the “Total SFC per epitope” value was found to be 3897 SFC. For the same molecule, the “HC > 50 Total SFC” value in assay [8] (HC > 50, dominant epitopes) came to 180 SFC. Moreover, the “PD % of Total Responders” value in assay [8] (PD donors) is reported as 33.3%. The “PD Total SFC” value in assay [8] (PD donors, dominant epitopes) came out at 145 SFC.

What is called IC50 is the point on the concentration scale where inhibition reaches its midpoint.
